Patent EP0012051A1, “3-Amino-2,4-dioxo-(1H,3H)-quinazolines, process for their preparation and therapeutic composition containing them” (Société dite: BERRI-BALZAC, priority 1978, dated 1980)

Key:
Type in all cases: in vivo
rats mâles = assay: Diuretic action with water overload in the rat (modified Lipschitz technique, oral); conditions: for K = nbre de meq/L pour 100 g d'animal / Na = nbre de meq/L pour 100 g d'animal / dV = pourcentage du volume d'urine émise par rapport au lot témoin et ramené à 100 g de poids corporel: rat, oral, surcharge hydrique; for K = nbre de meq/L pour 100 g d'animal / Na = nbre de meq/L pour 100 g d'animal: 6 h urine; for dV = pourcentage du volume d'urine émise par rapport au lot témoin et ramené à 100 g de poids corporel: 6 h; for diurèse: summary in words of tableaux I à III
From the text: (§1) L'étude de l'activité diurétique a été effectuée comme suit : • l'expérience a été réalisée en utilisant la technique de LIPSCHITZ & Coll. (J. Pharm. Exp. Ther. 1943, 79, p. 97) modifiée pour la circonstance.
(§2) Des lots de 6 rats mâles, pesant environ 150 g, mis à jeun et privés de boisson la veille de l'essai, ont été placés par deux dans des cages à métabolisme pour une durée de 6 heures.
Les produits à essayer ont été administrés par voie orale, à la sonde, en même temps qu'une surcharge hydrique (eau du robinet à 37 °C), à raison de 5 ml pour 100 g de poids corporel.
(§3) Les volumes urinaires ont été recueillis et mesurés toutes les heures, et la quantité d'urine excrétée est donnée en ml par heure et par rat.
(§4) Les dosages du chlore, du sodium et du potassium sont effectués sur les prélèvements de 6 heures et sont exprimés en Meq par litre d'urine et par 100 g de rat.
(§5) A partir de ces chiffres et par rapport aux témoins, des pourcentages d'augmentation ou de diminution de la diurèse ont pu être calculés.
L'excrétion urinaire est donnée par le rapport : [formula]
L'activité diurétique est obtenue en faisant le rapport : • E.U. traités • E.U. témoins
Dans le tableau I figure l'action diurétique avec surcharge hydrique pour les composés A, B et C, et pour le furosémide et l'hydrochlorothiazide.

chien Beagle = assay: Diuresis in the Beagle dog after injection, urine output over one hour; conditions: for Emission d'urine en ml TOTAL: TOTAL (60 mn)
RAT = assay: Diuretic action with water-and-sodium overload in the rat; conditions: for fuite de potassium: rat
From the text: as §1, §2, §3, §4, §5
Dans le tableau II figure l'action diurétique avec surcharge hydrosodée pour le composé A et le furosémide.

[1] = 2 mg/kg, une heure, versus témoin

## CN(C)n1c(=O)[nH]c2cc(Cl)c(S(N)(=O)=O)cc2c1=O [Composé A, Chloro-7 diméthylamino-3 dioxo-2,4 (1H,3H) sulfonamido-6 quinazoline]
Rats mâles; dose 0,1 mg/kg
  K = nbre de meq/L pour 100 g d'animal: +19 meq/L pour 100 g d'animal
Rats mâles; dose 1 mg/kg
  K = nbre de meq/L pour 100 g d'animal: +18 meq/L pour 100 g d'animal
  Na = nbre de meq/L pour 100 g d'animal: +139,4 meq/L pour 100 g d'animal
Rats mâles; dose 10 mg/kg
  dV = pourcentage du volume d'urine émise par rapport au lot témoin et ramené à 100 g de poids corporel: +38,3%
  K = nbre de meq/L pour 100 g d'animal: +71 meq/L pour 100 g d'animal
  Na = nbre de meq/L pour 100 g d'animal: +551 meq/L pour 100 g d'animal
Rats mâles; dose 25 mg/kg
  dV = pourcentage du volume d'urine émise par rapport au lot témoin et ramené à 100 g de poids corporel: +39,7%
  K = nbre de meq/L pour 100 g d'animal: +67 meq/L pour 100 g d'animal
  Na = nbre de meq/L pour 100 g d'animal: +672 meq/L pour 100 g d'animal
Rats mâles; dose 50 mg/kg
  dV = pourcentage du volume d'urine émise par rapport au lot témoin et ramené à 100 g de poids corporel: +23,6%
  K = nbre de meq/L pour 100 g d'animal: +90 meq/L pour 100 g d'animal
  Na = nbre de meq/L pour 100 g d'animal: +606 meq/L pour 100 g d'animal
Rats mâles
  diurèse: augmentent la diurèse
Chien Beagle; 2 mg/kg, une heure
  sodium éliminé dans le volume d'urine émis: ~10 fois celui du témoin
Chien Beagle; [1]
  la diurèse est multipliée par: 600/100
  taux de potassium multiplié par: 1,2
Chien Beagle; Dose I.V. 1 mg/kg, 0,5 mn
  Emission d'urine en ml 0,5 mn: 3,5 ml
Chien Beagle; Dose I.V. 1 mg/kg
  Emission d'urine en ml 5-10 mn: 5,0 ml
  Emission d'urine en ml - 20 mn: 8,5 ml
  Emission d'urine en ml - 30 mn: 7,0 ml
  Emission d'urine en ml - 40 mn: 9,0 ml
  Emission d'urine en ml - 50 mn: 8,0 ml
  Emission d'urine en ml - 60mn: 9,0 ml
  Emission d'urine en ml TOTAL: 50,0 ml
Chien Beagle; Dose I.V. 2 mg/kg, 0,5 mn
  Emission d'urine en ml 0,5 mn: 8,0 ml
Chien Beagle; Dose I.V. 2 mg/kg
  Emission d'urine en ml 5-10 mn: 14,5 ml
  Emission d'urine en ml - 20 mn: 20,5 ml
  Emission d'urine en ml - 30 mn: 18,5 ml
  Emission d'urine en ml - 40 mn: 15,5 ml
  Emission d'urine en ml - 50 mn: 11,5 ml
  Emission d'urine en ml - 60mn: 8,5 ml
  Emission d'urine en ml TOTAL: 97,0 ml
Chien Beagle; Dose I.V. 5 mg/kg, 0,5 mn
  Emission d'urine en ml 0,5 mn: 9,5 ml
Chien Beagle; Dose I.V. 5 mg/kg
  Emission d'urine en ml 5-10 mn: 10,5 ml
  Emission d'urine en ml - 20 mn: 10,0 ml
  Emission d'urine en ml - 30 mn: 8,0 ml
  Emission d'urine en ml - 40 mn: 9,0 ml
  Emission d'urine en ml - 50 mn: 5,5 ml
  Emission d'urine en ml - 60mn: 7,0 ml
  Emission d'urine en ml TOTAL: 59,5 ml
Chien Beagle; Dose I.V. 10 mg/kg, 0,5 mn
  Emission d'urine en ml 0,5 mn: 4,0 ml
Chien Beagle; Dose I.V. 10 mg/kg
  Emission d'urine en ml 5-10 mn: 8,0 ml
  Emission d'urine en ml - 20 mn: 9,0 ml
  Emission d'urine en ml - 30 mn: 10,0 ml
  Emission d'urine en ml - 40 mn: 4,0 ml
  Emission d'urine en ml - 50 mn: 8,0 ml
  Emission d'urine en ml - 60mn: 7,5 ml
  Emission d'urine en ml TOTAL: 50,5 ml
Chien Beagle; voie I.P., une heure
  dose avec laquelle la diurèse maximale au bout d'une heure est atteinte: 2 mg/kg
RAT; 10 mg/kg composé A sensiblement égale à 25 mg/kg de furosémide
  action diurétique par rapport au furosémide: sensiblement double
RAT; dose 10 mg/kg (doses équivalentes)
  fuite de potassium: 19%

## NS(=O)(=O)c1cc(C(=O)O)c(NCc2ccco2)cc1Cl [Furosémide, acide chloro-4 furfurylamino-2 sulfamoyl-5 benzoïque, reference compound]
Rats mâles; dose 10 mg/kg
  K = nbre de meq/L pour 100 g d'animal: -19 meq/L pour 100 g d'animal
Rats mâles; dose 25 mg/kg
  dV = pourcentage du volume d'urine émise par rapport au lot témoin et ramené à 100 g de poids corporel: +18%
Rats mâles; dose 50 mg/kg
  dV = pourcentage du volume d'urine émise par rapport au lot témoin et ramené à 100 g de poids corporel: +76%
  K = nbre de meq/L pour 100 g d'animal: +84 meq/L pour 100 g d'animal
  Na = nbre de meq/L pour 100 g d'animal: +639 meq/L pour 100 g d'animal
Rats mâles
  diurèse: augmentent la diurèse
RAT; dose 25 mg/kg (doses équivalentes)
  fuite de potassium: 30,3%

## CCN(CC)n1c(=O)[nH]c2cc(Cl)c(S(N)(=O)=O)cc2c1=O [Composé B, Chloro-7 diéthylamino-3 dioxo-2,4 (1H,3H) sulfonamido-6 quinazoline]
Rats mâles; dose 1 mg/kg
  K = nbre de meq/L pour 100 g d'animal: +15 meq/L pour 100 g d'animal
  Na = nbre de meq/L pour 100 g d'animal: +160 meq/L pour 100 g d'animal
Rats mâles; dose 10 mg/kg
  dV = pourcentage du volume d'urine émise par rapport au lot témoin et ramené à 100 g de poids corporel: +30%
  K = nbre de meq/L pour 100 g d'animal: +35 meq/L pour 100 g d'animal
  Na = nbre de meq/L pour 100 g d'animal: +582 meq/L pour 100 g d'animal
Rats mâles; dose 25 mg/kg
  dV = pourcentage du volume d'urine émise par rapport au lot témoin et ramené à 100 g de poids corporel: +35%
  K = nbre de meq/L pour 100 g d'animal: +33 meq/L pour 100 g d'animal
  Na = nbre de meq/L pour 100 g d'animal: +671 meq/L pour 100 g d'animal
Rats mâles; dose 50 mg/kg
  dV = pourcentage du volume d'urine émise par rapport au lot témoin et ramené à 100 g de poids corporel: +31%
  K = nbre de meq/L pour 100 g d'animal: +21 meq/L pour 100 g d'animal
  Na = nbre de meq/L pour 100 g d'animal: +550 meq/L pour 100 g d'animal
Rats mâles
  diurèse: augmentent la diurèse

## NS(=O)(=O)c1cc2c(cc1Cl)NCNS2(=O)=O [Hydrochloro-thiazide, dioxo-1,1 chloro-6 dihydro-3,4 sulfamoyl-7 (1,2,4)H benzothiadiazine, reference compound]
Rats mâles; dose 0,1 mg/kg
  Na = nbre de meq/L pour 100 g d'animal: +6,9 meq/L pour 100 g d'animal
Rats mâles; dose 1 mg/kg
  dV = pourcentage du volume d'urine émise par rapport au lot témoin et ramené à 100 g de poids corporel: +38%
  K = nbre de meq/L pour 100 g d'animal: +29 meq/L pour 100 g d'animal
  Na = nbre de meq/L pour 100 g d'animal: +374 meq/L pour 100 g d'animal
Rats mâles; dose 10 mg/kg
  dV = pourcentage du volume d'urine émise par rapport au lot témoin et ramené à 100 g de poids corporel: +40%
  K = nbre de meq/L pour 100 g d'animal: +22 meq/L pour 100 g d'animal
  Na = nbre de meq/L pour 100 g d'animal: +430 meq/L pour 100 g d'animal
Rats mâles; dose 25 mg/kg
  dV = pourcentage du volume d'urine émise par rapport au lot témoin et ramené à 100 g de poids corporel: +48%
  K = nbre de meq/L pour 100 g d'animal: +44 meq/L pour 100 g d'animal
  Na = nbre de meq/L pour 100 g d'animal: +504 meq/L pour 100 g d'animal
Rats mâles
  diurèse: augmentent la diurèse

## NS(=O)(=O)c1cc2c(=O)n(N3CCCCC3)c(=O)[nH]c2cc1Cl [Composé C, Chloro-7 pipéridino-3 dioxo-2,4 (1H,3H) sulfonamido-6 quinazoline]
Rats mâles; dose 0,1 mg/kg
  K = nbre de meq/L pour 100 g d'animal: +15 meq/L pour 100 g d'animal
Rats mâles; dose 1 mg/kg
  dV = pourcentage du volume d'urine émise par rapport au lot témoin et ramené à 100 g de poids corporel: +15%
  K = nbre de meq/L pour 100 g d'animal: +17 meq/L pour 100 g d'animal
  Na = nbre de meq/L pour 100 g d'animal: +141 meq/L pour 100 g d'animal
Rats mâles; dose 10 mg/kg
  dV = pourcentage du volume d'urine émise par rapport au lot témoin et ramené à 100 g de poids corporel: +35%
  K = nbre de meq/L pour 100 g d'animal: +47 meq/L pour 100 g d'animal
  Na = nbre de meq/L pour 100 g d'animal: +513 meq/L pour 100 g d'animal
Rats mâles; dose 25 mg/kg
  dV = pourcentage du volume d'urine émise par rapport au lot témoin et ramené à 100 g de poids corporel: +31%
  K = nbre de meq/L pour 100 g d'animal: +42 meq/L pour 100 g d'animal
  Na = nbre de meq/L pour 100 g d'animal: +583 meq/L pour 100 g d'animal
Rats mâles; dose 50 mg/kg
  dV = pourcentage du volume d'urine émise par rapport au lot témoin et ramené à 100 g de poids corporel: +18%
  K = nbre de meq/L pour 100 g d'animal: +57 meq/L pour 100 g d'animal
  Na = nbre de meq/L pour 100 g d'animal: +531 meq/L pour 100 g d'animal
Rats mâles
  diurèse: augmentent la diurèse
